Assay results: patent publication US20060121040A1, “Compositions and methods for treating neuroendocrine tumors” (Wisconsin Alumni Research Foundation, priority 2004, published 2006)
Entries after “also recorded” stand apart in the source; their conditions may differ. Like-named read-outs stand apart in the source and are kept apart here.

What was measured:
[1] = tested on: human achaete-scute homolog-1 (hASH1); assay: NE marker hASH1 in medullary thyroid cancer TT cells; type: cell-based; settings: SB216763 0-50 μM
chromogranin A (CgA) = assay: NE marker chromogranin A in medullary thyroid cancer TT cells; type: cell-based, human; settings: SB216763 0-50 μM
[2] = tested on: medullary thyroid cancer TT cells; assay: Cellular growth of medullary thyroid cancer cells; type: cell-based, human
p21 = assay: Western analysis of cell cycle inhibitor p21 in H727 cells; type: cell-based, human; settings: 20 and 100 μmol/L, 2 days
Experimental: (§5) Cellular extracts were prepared and quantified by bicinchoninic acid protein assay kit (Pierce, Rockford, Ill.) as previously described (Sippel & Chen, Surgery 2002;132:1035-9). Denatured proteins (30-50 μg) from each sample underwent electrophoresis on a SDS polyacrylamide gel and transferred to a nitrocellulose membranes (Schleicher and Schuell, Keene, N.H.). Membranes were blocked for 1 hour in milk solution (1×PBS, 5% nonfat dry milk, 0.05% Tween 20) and incubated at 4° C. overnight with primary antibodies. The following primary antibody dilutions were used: phospho-ERK1/2 (1:1,000), phospho-MEK (1:1,000), phospho-Raf-1 (Ser338; 1:1,000), p21 and p18, (1:1,000) (Cell Signaling Technology, Beverly, Mass.), Chromogranin A (1:2,000; Zymed Laboratories, San Francisco, Calif.), MASH-1 (1:1000, BD Pharmingen, San Diego, Calif.), and G3PDH (1:10,000; Trevigen, Gaithersburg, Md.). After primary antibody incubation, membranes were washed 3×5 minutes in PBS-T wash buffer (1×PBS and 0.05% Tween 20). Then the membranes were incubated with either 1:2,000 dilution of goat anti-rabbit or goat anti-mouse secondary antibody (Cell Signaling Technology) depending on the source of the primary antibody for 1 hour at room temperature. […]

hASH1 [3] = assay: Western analysis of hASH1 in BON cells; type: cell-based, human; settings: 20 and 100 μmol/L, 2 d
Experimental: (§1) H727 and BON cells were plated at 50% to 60% confluence in 100-mm cell culture dishes and incubated overnight. Cells were treated with ZM336372 (BioMol, Plymouth Meeting, Pa.) in different concentrations for up to 6 days. Of note, treatments were done in serum-containing medium. Furthermore, the DMSO concentration never exceeded 2% in all treatment groups. ZM336372 at 500 μmol/L concentrations were used only in the toxicity experiments. Stock ZM336372 was made at higher concentration to reduce DMSO toxicity.
(§2) Changes in chromogranin A levels are known to be concordant with alterations in other neuroendocrine hormones such as histamine and serotonin (Sippel & Chen, Surgery 2002;132:1035-9). Additionally, hASH1 is expressed in most neuroendocrine tumors and correlates with neuroendocrine hormone levels as previously described. Therefore, to determine if ZM336372 can reduce chromogranin A and hASH1, pulmonary H727 and gastrointestinal BON carcinoid cells were treated with ZM336372. […] Furthermore, to determine when chromogranin A depletion occurs, H727 cells were treated with ZM336372 at different time intervals.

H727 cells [4] = assay: Drug toxicity assay, propidium iodide exclusion, H727 cells; type: cell-based, human
Experimental: Briefly, cells were trypsinized and plated in a 6-well plate at 1 to 2×10^6 in triplicate and allowed to adhere overnight. […] As a control, DMSO was added. After incubation, the medium was removed and cells were trypsinized and added to removed medium. Cells were incubated on ice and 2.5 Ag/mL propidium iodide (Sigma) was added 5 minutes before flow cytometry (17). Data was acquired using a FACSCalibur bench top flow cytometer (Becton Dickinson, San Jose, Calif.) using CellQuest acquisition and analysis software.

p18 = assay: Western analysis of cell cycle inhibitor p18 in H727 cells; settings: 20 and 100 μmol/L, 2 days
Experimental: as §5

H727 cells [5] = assay: Cytotoxicity assay (Cell Titer Glo), H727 cells; type: cell-based, human; settings: ZM336372 tested 0 to 200 μmol/L
Experimental: (§3) Cells (H727 and BON) were harvested by trypsinization and plated at a cell density of 3,000 cells per well of each microtiter plate. Cells were grown for 4 hours at 37° C. to allow cell attachment to occur before compound addition. Doxorubicin (control) and ZM336372 were dissolved in DMSO. […] Treatments were done in duplicate. Cells were incubated with the test compounds for 72 hours before reading the assay. Then processing and calculation were done according to manufacturer's directions for Cell Titer Glo Assay (Promega, Madison, Wis.).

ERK1/2 = assay: Phosphorylated ERK1/2 in NE tumor cells (BON and TT) treated with ZM336372 (FIG. 7); type: cell-based, human; settings: ZM336372 0-50 μM
chromogranin A [6] = assay: Western analysis of chromogranin A in H727 cells; type: cell-based, human
Experimental: as §1, §2

Raf-1/MEK/ERK system [7] = assay: Western analysis for Raf-1 pathway activation in H727 cells; type: cell-based, human
Experimental: as §1

GSK3B = target: T1, GSK3B (Homo sapiens, UniProt P49841); assay: Phosphorylated GSK3B in NE tumor cells (BON and TT) treated with ZM336372 (FIG. 7); type: cell-based; settings: ZM336372 0-50 μM
T1 construct: treatment of NE tumor cells with ZM336372 (0-50 μM); endogenous in cells; host or cells: BON and TT cells
T1 sequence (P49841 whole entry): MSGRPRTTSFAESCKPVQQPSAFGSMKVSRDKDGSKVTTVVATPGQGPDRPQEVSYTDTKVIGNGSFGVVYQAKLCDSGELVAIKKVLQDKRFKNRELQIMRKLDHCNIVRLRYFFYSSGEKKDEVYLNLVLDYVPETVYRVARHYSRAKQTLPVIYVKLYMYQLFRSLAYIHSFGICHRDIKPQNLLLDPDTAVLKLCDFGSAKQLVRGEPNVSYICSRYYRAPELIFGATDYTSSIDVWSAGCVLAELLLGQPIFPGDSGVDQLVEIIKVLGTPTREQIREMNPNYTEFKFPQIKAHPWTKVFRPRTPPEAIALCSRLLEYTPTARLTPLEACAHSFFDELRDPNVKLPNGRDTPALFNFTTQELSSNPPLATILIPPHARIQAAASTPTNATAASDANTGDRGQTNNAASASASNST

H727 cells [8] = assay: Cell proliferation assay (MTT) in H727 cells; type: cell-based, human; settings: 100 μmol/L vs DMSO, up to 16 days, serum-containing medium
Experimental: (§4) Cells were trypsinized and plated in triplicate to 24-well plates and allowed to adhere overnight. […] Media were changed every 2 days with new treatment. […] Absorbance was determined using spectrophotometer at a wavelength of 540 nm.

hASH1 [9] = assay: Western analysis of hASH1 in H727 cells; type: cell-based, human
Experimental: as §1, §2

BON cells [10] = assay: Cell proliferation assay (MTT) in BON cells; type: cell-based, human; settings: 100 μmol/L vs DMSO, day 4 to day 10
Experimental: as §4

BON cells [11] = assay: Cytotoxicity assay (Cell Titer Glo), BON cells; type: cell-based, human; settings: 72 hours, ZM336372 tested 0 to 200 μmol/L
Experimental: as §3

BON cells [12] = assay: Drug toxicity assay, propidium iodide exclusion, BON cells; type: cell-based, human; settings: 63 to 500 μmol/L, 2 days
Experimental: Briefly, cells were trypsinized and plated in a 6-well plate at 1 to 2×10^6 in triplicate and allowed to adhere overnight. Then the media was replaced with fresh media containing various concentrations (31.25, 62.5, 125, 250, and 500 μmol/L) of ZM336372 and incubated for up to 3 days. As a control, DMSO was added. After incubation, the medium was removed and cells were trypsinized and added to removed medium. Cells were incubated on ice and 2.5 Ag/mL propidium iodide (Sigma) was added 5 minutes before flow cytometry (17). Data was acquired using a FACSCalibur bench top flow cytometer (Becton Dickinson, San Jose, Calif.) using CellQuest acquisition and analysis software.

Raf-1/MEK/ERK system [13] = assay: Western analysis for Raf-1 pathway activation in BON cells; type: cell-based, human; settings: increasing doses (20 and 100 μmol/L), 2 d
Experimental: as §1

chromogranin A [14] = assay: Western analysis of chromogranin A in BON cells; type: cell-based, human; settings: 20 and 100 μmol/L, 2 d
Experimental: as §1, §2

Which results are given for Cn1cc(C2=C(c3ccc(Cl)cc3Cl)C(=O)NC2=O)c2ccccc21 [SB216763]?
hASH1 [1]: suppression; also recorded: reduction; chromogranin A production (chromogranin A (CgA)): suppression; also recorded: reduction; TT cell growth ([2]; SB216763 0-50 μM): suppression

With Cc1ccc(NC(=O)c2cccc(N(C)C)c2)cc1NC(=O)c1ccc(O)cc1 [ZM336372] as the compound, how does the p21 expression (p21) read?
The p21 expression was “induced; also recorded: significant induction”.

What about the hASH1 level (hASH1 [3]) of the same compound?
Its hASH1 level is “reduction; also recorded: dose-dependent decrease”.

And the cytolysis (H727 cells [4]; 20-100 μmol/L)?
The cytolysis was under 20%.

What about the viability (H727 cells [4]; H727, 20 to 100 μmol/L vs DMSO, 2 d) of the same compound?
Its viability is “significant viability was maintained”.

What about the p18 expression (p18) of the same compound?
Its p18 expression is “induced; also recorded: significant induction”.

What about the IC50 (H727 cells [5]; 72 hours) of the same compound?
The IC50 was “did not produce enough cellular cytotoxicity to estimate an IC50”.

What about the “levels of phosphorylated ERK1/2” value (ERK1/2) of the same compound?
Its value is “increased levels”.

What about the “time of greatest comparative loss of chromogranin A” value (chromogranin A [6]; 100 μmol/L) of the same compound?
The value was 48 h.

What about the “lasting effect on chromogranin A (days 2, 4 and 6)” value (chromogranin A [6]; 100 μmol/L vs DMSO) of the same compound?
Its value is “maintained to 6 days; also recorded: persistent reduction”.

And the “earliest detection of reduction of chromogranin A” value (chromogranin A [6]; 100 μmol/L, 10 min, 1, 12, 24, 48 h)?
Its value is 1 h.

And the “chromogranin A level” value (chromogranin A [6]; 20 and 100 μmol/L, 2 d)?
Its value is “reduction; also recorded: dose-dependent decrease”.

What about the “MEK1/2 phosphorylation at days 4 and 6” value (Raf-1/MEK/ERK system [7]; 100 μmol/L) of the same compound?
The value was “sustained; also recorded: greater than controls out to 6 d”.

What about the “Raf-1 phosphorylation at Ser338” value (Raf-1/MEK/ERK system [7]; 20 and 100 μmol/L, 2 days) of the same compound?
The value was “phosphorylated; also recorded: dose-dependent increases”.

And the “MEK1/2 and ERK1/2 phosphorylation” value (Raf-1/MEK/ERK system [7]; 20 and 100 μmol/L, 2 days, vs DMSO)?
Its value is “activation; also recorded: dose-dependent increases”.

And the “levels of phosphorylated GSK3B” value (GSK3B)?
The value was “increased levels”.

And the cell proliferation (H727 cells [8])?
Its cell proliferation is “growth suppressed; also recorded: inhibited”.

What about the “first recognized reduction in hASH1” value (hASH1 [9]; 100 μmol/L) of the same compound?
Its value is 1 h.

And the hASH1 level (hASH1 [9]; 20 and 100 μmol/L, 2 d)?
The hASH1 level was “reduction; also recorded: dose-dependent decrease”.

What about the cell proliferation (BON cells [10]) of the same compound?
The cell proliferation was “growth suppression; also recorded: inhibited”.

What about the IC50 (BON cells [11]) of the same compound?
The IC50 was “did not produce enough cellular cytotoxicity to estimate an IC50”.

And the cells remaining viable (BON cells [12])?
The cells remaining viable was about 70%.

And the “ERK1/2 and MEK1/2 phosphorylation” value (Raf-1/MEK/ERK system [13])?
The value was “strong activation; also recorded: dose-dependent increases”.

And the “chromogranin A level” value (chromogranin A [14])?
The value was “reduction; also recorded: dose-dependent decrease”.

What about the “growth of other neuroendocrine tumor cell lines” value ([2]; ZM336372, medullary thyroid cancer cells, data not shown) of the same compound?
The value was “inhibited growth”.

What does the source list for COc1cccc2c1C(=O)c1c(O)c3c(c(O)c1C2=O)C[C@@](O)(C(=O)CO)C[C@@H]3O[C@H]1C[C@H](N)[C@H](O)[C@H](C)O1 [doxorubicin]?
IC50 (H727 cells [5]; Homo sapiens, NCI-H727, 72 hours, read-out: IC50): 1.1 µM; IC50 (BON cells [11]; Homo sapiens, read-out: IC50): 1.4 µM
